31 compounds from ChEMBL document CHEMBL4346660, “Cryptolepine and aromathecin based mimics as potent G-quadruplex-binding, DNA-cleavage and anticancer agents: Design, synthesis and DNA targeting-induced apoptosis” (Eur J Med Chem, 2019) can be followed below.

SMILES strings stand for the structures. The source made the active and inactive calls. No cut-off for these calls is given here.

For one assay, the system named is NCI-H460. The assay is described as follows: Antiproliferative activity against human NCI-H460 cells assessed as reduction in cell viability incubated for 48 hrs by MTT assay. The format is functional, cell-based. The settings on record: NCI-H460, 48 h.
The test system of assay [1] is MGC-803. The assay is described as follows: Antiproliferative activity against human MGC803 cells assessed as reduction in cell viability incubated for 48 hrs by MTT assay. The format is functional, cell-based. As to conditions: MGC-803, 48 h.
The subject of the next assay is L02. The assay is described as follows: Cytotoxicity against human HL7702 cells assessed as reduction in cell viability incubated for 48 hrs by MTT assay. The assay is classed as cell-based. The settings on record: L02, 48 h.
Another assay has as its system T-24. The assay is described as follows: Antiproliferative activity against human T24 cells assessed as reduction in cell viability incubated for 48 hrs by MTT assay. The format is functional, cell-based. As to conditions: T-24, 48 h.
A further assay concerns HepG2. The assay can be described thus: Antiproliferative activity against human HepG2 cells assessed as reduction in cell viability incubated for 48 hrs by MTT assay. The format is functional, cell-based. As to conditions: HepG2, 48 h.
The subject of another assay is DNA. The assay is described as follows: Binding affinity to Escherichia coli supercoiled pBR322 DNA assessed as DNA intercalation at 5 uM after 3 hrs by ethidium bromide staining-based agarose gel electrophoresis analysis. The format is nucleic-acid assay.
The subject of assay [2] is MGC-803. The assay is described as follows: Antitumor activity against human MGC803 cells xenografted in BALB/C mouse assessed as tumor growth inhibition at 6 mg/kg, ip administered every other day for 2 weeks measured during compound dosing relative to control. The format is functional. As to conditions: MGC-803, ip, 336 h, read-out: TGI.

As to `COc1cc2c(cc1OC)-c1nc3ccccc3c(NCCN(C)C)c1C2`, the half-inhibitory concentration (IC50) stood at 3.1 µM with NCI-H460; 1.36 µM with MGC-803 [1]; 2.06 µM in the assay with L02; 1.82 µM in the assay on T-24; 3.14 µM with HepG2.

Regarding `Cc1ccc2nc3c(c(NCCCN4CCOCC4)c2c1)Cc1ccccc1-3`, the IC50 was 0.89 µM in the assay on NCI-H460; 1.42 µM in the assay with MGC-803 [1]; 1.67 µM in the assay with L02; 0.58 µM with T-24; 1.88 µM in the assay on HepG2.

Turning to `Fc1ccc2nc3c(c(NCCCN4CCOCC4)c2c1)Cc1ccccc1-3`, the half-inhibitory concentration (IC50) in the assay on NCI-H460 stood at 6.66 µM; with MGC-803 [1], 2.79 µM; with L02, 3.05 µM; in the assay with T-24 it was 1.9 µM; in the assay on HepG2, 4.46 µM.

Regarding `CN(C)CCCNc1c2c(nc3ccccc13)-c1ccccc1C2`, the IC50 was found to be 1.66 µM in the assay on NCI-H460; 0.95 µM in the assay on MGC-803 [1]; 0.91 µM in the assay on L02; 0.31 µM in the assay on T-24; 2.6 µM in the assay on HepG2.

As to `Cc1ccc2nc3c(c(NCCCN(C)C)c2c1)Cc1ccccc1-3`, the 50% inhibitory concentration (IC50) in the assay with NCI-H460 was 1.16 µM; with MGC-803 [1], 0.86 µM; in the assay on L02, 0.58 µM; in the assay with T-24, 0.84 µM; in the assay with HepG2, 1.19 µM.

Take `COc1cc2c(cc1OC)-c1nc3ccc(Br)cc3c(NCCN(C)C)c1C2`: the half-inhibitory concentration (IC50) with NCI-H460 was determined as 2.83 µM; in the assay on MGC-803 [1] it was 2.73 µM; with L02, 6.95 µM; with T-24, 1.53 µM; with HepG2, 1.61 µM.

With `CC[n+]1c(-c2ccccc2)c2cc(N)ccc2c2ccc(N)cc21`, in the assay on DNA, the outcome was Active.

For the compound `COc1cc2c(cc1OC)-c1nc3ccc(Cl)cc3c(NCCCN3CCOCC3)c1C2`, the IC50 turned out to be 2.4 µM in the assay on NCI-H460; 4.13 µM with MGC-803 [1]; 3.8 µM with L02; 2.23 µM with T-24; 7.6 µM in the assay on HepG2.

On to `c1ccc2c(c1)Cc1c-2nc2ccccc2c1NCCCN1CCOCC1`, for which the IC50 in the assay with NCI-H460 amounted to 4.6 µM; with MGC-803 [1], 1.95 µM; in the assay on L02 it was 4.73 µM; in the assay on T-24, 1.43 µM; in the assay on HepG2, 4.48 µM.

On to `COc1cc2c(cc1OC)-c1nc3ccc(Br)cc3c(NCCCN3CCOCC3)c1C2`, for which the half-maximal inhibitory concentration (IC50) in the assay on NCI-H460 is 4.25 µM; in the assay on MGC-803 [1], 3.38 µM; with L02, 5.02 µM; in the assay on T-24 it was 2.64 µM; in the assay on HepG2 it was 3.97 µM.

For the compound `CN(C)CCCNc1c2c(nc3ccc(Br)cc13)-c1ccccc1C2`, the half-inhibitory concentration (IC50) was 2.02 µM in the assay on NCI-H460; 1.8 µM in the assay with MGC-803 [1]; 1.64 µM with L02; 1.36 µM in the assay with T-24; 3.12 µM in the assay on HepG2.

Take `COc1cc2c(cc1OC)-c1nc3ccc(C)cc3c(NCCCN3CCOCC3)c1C2`: the IC50 worked out at 5.64 µM in the assay on NCI-H460; 3.5 µM in the assay on MGC-803 [1]; 7.72 µM in the assay on L02; 4.62 µM in the assay on T-24; 7.46 µM in the assay on HepG2.

For `COc1cc2c(cc1OC)-c1nc3ccccc3c(NCCCN3CCOCC3)c1C2`, the IC50 with NCI-H460 was determined as 5 µM; in the assay with MGC-803 [1], 2.52 µM; in the assay on L02 it was 4.97 µM; in the assay with T-24, 2.77 µM; in the assay on HepG2, 3.94 µM.

On to `Brc1ccc2nc3c(c(NCCCN4CCOCC4)c2c1)Cc1ccccc1-3`, for which the IC50 amounted to 8.57 µM in the assay with NCI-H460; 7.5 µM in the assay on MGC-803 [1]; 5.71 µM in the assay on L02; 9.41 µM in the assay on T-24; 6.32 µM with HepG2.

As to `COc1cc2c(cc1OC)-c1nc3ccc(F)cc3c(NCCCN3CCOCC3)c1C2`, the 50% inhibitory concentration (IC50) with NCI-H460 was found to be 6.42 µM; in the assay on MGC-803 [1], 3.7 µM; in the assay with L02, 3.71 µM; in the assay with T-24, 3.74 µM; in the assay with HepG2 it was 8.74 µM.

In the case of `COc1cc2c(cc1OC)-c1nc3ccccc3c(NCCCN(C)C)c1C2`, the 50% inhibitory concentration (IC50) in the assay with NCI-H460 was determined as 3.92 µM; with MGC-803 [1], 5.17 µM; in the assay on L02 it was 4.35 µM; in the assay on T-24, 2.47 µM; in the assay with HepG2, 4.6 µM.

With `CN(C)CCNc1c2c(nc3ccccc13)-c1ccccc1C2`, the IC50 with NCI-H460 is 1.23 µM; in the assay on MGC-803 [1], 0.93 µM; with L02 it was 1.31 µM; in the assay on T-24 it was 0.61 µM; in the assay with HepG2, 2.31 µM.

Consider `COc1cc2c(cc1OC)-c1nc3ccc(F)cc3c(NCCN(C)C)c1C2`, for which the IC50 is 5.73 µM with NCI-H460; 2.35 µM in the assay with MGC-803 [1]; 4.38 µM with L02; 2.2 µM in the assay with T-24; 1.77 µM with HepG2.

For the compound `Cc1ccc2nc3c(c(NCCN(C)C)c2c1)Cc1ccccc1-3`, the IC50 in the assay with NCI-H460 came to 1.03 µM; in the assay on MGC-803 [1], 0.92 µM; in the assay with L02, 1.15 µM; in the assay with T-24, 0.31 µM; with HepG2, 1.71 µM.

For the compound `COc1cc2c(cc1OC)-c1nc3ccc(Cl)cc3c(NCCCN(C)C)c1C2`, the half-maximal inhibitory concentration (IC50) with NCI-H460 was found to be 1.95 µM; in the assay with MGC-803 [1], 1.58 µM; in the assay with L02, 2.6 µM; with T-24, 2.09 µM; in the assay with HepG2 it was 4.18 µM.

As for `COc1cc2c(cc1OC)-c1nc3ccc(C)cc3c(NCCN(C)C)c1C2`, the 50% inhibitory concentration (IC50) turned out to be 4.99 µM in the assay with NCI-H460; 2.46 µM with MGC-803 [1]; 3.01 µM in the assay with L02; 2.39 µM in the assay with T-24; 2.57 µM in the assay with HepG2.

As for `CN(C)CCNc1c2c(nc3ccc(Cl)cc13)-c1ccccc1C2`, the half-maximal inhibitory concentration (IC50) with NCI-H460 amounted to 4.96 µM; with MGC-803 [1], 3.49 µM; in the assay on L02 it was 3.6 µM; in the assay with T-24 it was 1.74 µM; in the assay on HepG2, 6.71 µM.

For the compound `CC[C@@]1(O)C(=O)OCc2c1cc1n(c2=O)Cc2cc3ccccc3nc2-1` [CAMPTOTHECIN], the half-maximal inhibitory concentration (IC50) is 5.37 µM in the assay with NCI-H460; 4.27 µM with MGC-803 [1]; 2.15 µM in the assay with L02; 3.09 µM with T-24; 5.69 µM in the assay on HepG2. Also, in the assay with MGC-803 [2], the inhibition in vivo at 6 mg/kg was 62.3%.

With `COc1cc2c(cc1OC)-c1nc3ccc(F)cc3c(NCCCN(C)C)c1C2`, the IC50 in the assay on NCI-H460 stood at 3.52 µM; in the assay on MGC-803 [1], 2.11 µM; in the assay with L02, 3.07 µM; in the assay on T-24, 2.86 µM; in the assay with HepG2 it was 5.23 µM.

For the compound `CN(C)CCNc1c2c(nc3ccc(F)cc13)-c1ccccc1C2`, the IC50 with NCI-H460 is 2.89 µM; with MGC-803 [1], 1.78 µM; with L02, 3.22 µM; with T-24, 1.15 µM; with HepG2, 2.59 µM.

On to `CN(C)CCCNc1c2c(nc3ccc(Cl)cc13)-c1ccccc1C2`, for which the IC50 in the assay with NCI-H460 was 2.31 µM; with MGC-803 [1] it was 1.11 µM; with L02, 2.3 µM; in the assay on T-24, 0.91 µM; in the assay with HepG2 it was 2.14 µM.

As for `COc1cc2c(cc1OC)-c1nc3ccc(Br)cc3c(NCCCN(C)C)c1C2`, the concentration for half-maximal inhibition (IC50) came to 5.73 µM in the assay with NCI-H460; 3.66 µM in the assay on MGC-803 [1]; 7.06 µM in the assay on L02; 4.97 µM in the assay on T-24; 6.38 µM in the assay with HepG2.

Turning to `Clc1ccc2nc3c(c(NCCCN4CCOCC4)c2c1)Cc1ccccc1-3`, the concentration for half-maximal inhibition (IC50) in the assay with NCI-H460 was found to be 5.21 µM; with MGC-803 [1], 6.89 µM; in the assay on L02 it was 7.12 µM; with T-24, 4.32 µM; with HepG2, 5.9 µM.

With `COc1cc2c(cc1OC)-c1nc3ccc(Cl)cc3c(NCCN(C)C)c1C2`, the IC50 with NCI-H460 stood at 2.55 µM; in the assay on MGC-803 [1], 2.22 µM; in the assay with L02, 2.56 µM; with T-24, 2.21 µM; in the assay with HepG2 it was 3.12 µM.

In the case of `COc1cc2c(cc1OC)-c1nc3ccc(C)cc3c(NCCCN(C)C)c1C2`, the concentration for half-maximal inhibition (IC50) in the assay with NCI-H460 was found to be 5.52 µM; in the assay with MGC-803 [1], 5.08 µM; in the assay on L02, 4.94 µM; with T-24, 4.64 µM; with HepG2 it was 12 µM.

For the compound `CN(C)CCNc1c2c(nc3ccc(Br)cc13)-c1ccccc1C2`, the IC50 in the assay with NCI-H460 turned out to be 2.8 µM; in the assay on MGC-803 [1], 2.98 µM; in the assay with L02, 6.43 µM; in the assay on T-24, 2.21 µM; with HepG2, 4.18 µM.
